Source: US8147817B2, “IL-33 in the treatment and diagnosis of diseases and disorders” (The Brigham and Women's Hospital, Inc., priority 2006, dated 2012)
“Also recorded” adds a separate entry of the source.

How the values were obtained:
IκBα [1] = experiment: IκBα phosphorylation by Western analysis in cardiomyocytes; assay type: cell-based, rat; settings: cardiomyocytes
Protocol: (§1) Western analyses were performed as described previously (45). Membranes were incubated with primary antibodies overnight (anti-p44/42MAPK diluted 1:500; phospho-p44/42MAPK (Thr202/Tyr204) 1:1000; phospho-JNK (Thr183/Tyr185) 1:500; p38MAPK 1:500; phospho-p38MAPK (Thr180/Tyr182) 1:500; phospho-Akt (Ser473) 1:1000 and phospho-IκBα 1:1000, all from Cell Signaling, anti-mouse ST2L, from R&D 1:1000 and anti-IL-33 as described above, 1:500) at 4° C., detected with horseradish peroxidase-conjugated antibodies and enhanced chemiluminescence.

IL-33 = IL-33 gene expression by quantitative PCR in cardiomyocytes and cardiac fibroblasts; assay type: cell-based, rat; settings: PMA 0.2 μM, angiotensin-II 0.1 μM, TNF-α 10 ng/ml, IL-1β 10 ng/ml
Protocol: mRNA expression was analyzed by quantitative PCR using the QuantiTect SYBR Green reverse transcription-PCR kit (QIAGEN, Valencia, Calif.) and the Light Cycler System (Roche Applied Science, Indianapolis, Ind.) as previously described (5). Total RNA was extracted from cells with TRI reagent, and 0.2 μg of RNA was analyzed. Sequences of PCR primers were as follows (5′ to 3′): […] (SEQ ID NO: 1) and […] (SEQ ID NO: 2) (IL-33); […] (SEQ ID NO: 3) and […] (SEQ ID NO: 4) (ANP); […] (SEQ ID NO: 5) and […] (SEQ ID NO: 6) (BNP); […] (SEQ ID NO: 7) and […] (SEQ ID NO: 8) (procollagen I); […] (SEQ ID NO: 9) and […] (SEQ ID NO: 10) (collagen III).
mRNA expression was analyzed by quantitative PCR using the QuantiTect SYBR Green reverse transcription-PCR kit (QIAGEN) and the Light Cycler System (Roche Applied Science) as previously described (45). Total RNA was extracted from cells with TRI reagent, and 0.2 μg of RNA was analyzed. Sequences of PCR primers were as follows (5′ to 3′): […] (SEQ ID NO: 1) and […] (SEQ ID NO: 2) (rat IL-33); […] (SEQ ID NO: 3) and […] (SEQ ID NO: 4) (rat ANP); […] (SEQ ID NO: 5) and […] (SEQ ID NO: 6) (rat BNP).

NF-κB [2] = experiment: NF-κB luciferase reporter assay in neonatal rat cardiomyocytes; assay type: cell-based; settings: n=3
Protocol: Neonatal rat cardiomyocytes were transfected using Lipofectamine Plus (Invitrogen) with a luciferase reporter plasmid for NF-κB and with β-galactosidase, as described previously (47). After 48 hours of transfection, cells were then stimulated for an additional 24 hours, lysed and treated with Dual-Light assay system (Applied Biosystems, Foster City, Calif.), and analyzed using a luminometer (PerkinElmer Waltham, Calif.).

NF-κB [3] = experiment: NF-κB nuclear binding activity by EMSA in cardiomyocytes; assay type: cell-based, rat; settings: cardiomyocytes; angiotensin-II 1 μM, phenylephrine 50 μM, IL-33 10 ng/ml
Protocol: (§2) Electromobility shift assays were performed as described previously (8). Cells were lysed for 10 minutes on ice in a solution containing 10 mM HEPES (pH 7.6), 15 mM KCl, 2 mM MgCl2, 0.1 mM ethylenediamine tetraacetic acid (EDTA), 1 mM dithiothreitol (DTT), 0.5 mM phenylmethylsulphonylfluoride (PMSF), 10 μg/mL leupeptin and 0.2% Nonident P-40. Dishes were gently scraped, and nuclei were collected by centrifugation at 800 g for 30 seconds and then suspended in a solution of 50 mM HEPES, 400 mM KCl, 0.1 mM EDTA, 10% glycerol, 1 mM DTT, 0.5 mM PMSF and 10 μg/mL leupeptin. The mixture was incubated on ice for 30 minutes, and the supernatant was collected after centrifugation for 15 minutes at 400 g. Binding reactions were performed with 5 or 10 μg of nuclear protein in 10 mM Tris, 1 mM DTT, 1 mM EDTA, 5% glycerol, 0.1% Triton X-100, 1 mg poly(dIdC), 5 μg bovine serum albumin (BSA) and approximately 10,000 cpm of −32P-labeled oligonucleotide. The binding reactions for AP-1 activity also contained 5 mM MgCl2. Control reaction mixtures contained a 100-fold excess of unlabeled oligonucleotide and were incubated with nuclear extracts of IL-1β-treated cells. DNA complexes were separated on a 4% nondenaturing polyacrylamide gel in Tris-HCl (6.7 mM), EDTA (1 mM) and ammonium acetate (3.3 mM). The oligonucleotides contained the NF-B binding site (sequence: 5′-AGTTGAGGGGACTTTCCCAGGC-3′ (SEQ ID NO: 15)) and were labeled by standard procedures.
EMSAs were performed as described previously (47). Cells were lysed for 10 minutes on ice in 10 mM HEPES (pH 7.6), 15 mM KCl, 2 mM MgCl2, 0.1 mM EDTA, 1 mM DTT, 0.5 mM PMSF, 10 μg/mL leupeptin, and 0.2% Nonident P-40. Dishes were gently scraped, and nuclei were collected by centrifugation at 800 g for 30 seconds and then suspended in a solution of 50 mM HEPES, 400 mM KCl, 0.1 mM EDTA, 10% glycerol, 1 mM DTT, 0.5 mM PMSF, and 10 μg/mL leupeptin. The mixture was incubated on ice for 30 minutes, and the supernatant was collected after centrifugation for 15 minutes at 400 g. Binding reactions were performed with 5 or 10 μg of nuclear protein in 10 mM Tris, 1 mM DTT, 1 mM EDTA, 5% glycerol, 0.1% Triton X-100, 1 mg poly(dIdC), […] BSA, and 10,000 cpm of [^32P]-labeled oligonucleotide. The specific NF-κB consensus oligonucleotides were 5′-[…]-3′ (SEQ ID NO: 15) and 5′-[…]-3′ (SEQ ID NO: 18) (Promega). Positive and negative control mixtures as well as specific competition mixtures were made as recommended by the manufacturer's instructions, using binding buffer with positive samples, labeled NF-κB oligonucleotides and 10-fold excess of cold NF-κB consensus oligonucleotides for specific competition. DNA complexes were separated on a 6% nondenaturing polyacrylamide gel in Tris-HCl (6.7 mM), EDTA (1 mM), and ammonium acetate (3.3 mM).

IκBα [4] = experiment: IκBα phosphorylation by Western analysis in cardiac fibroblasts; assay type: cell-based, rat
Protocol: as §1

NF-κB [5] = experiment: NF-κB nuclear binding activity by EMSA in cardiac fibroblasts; assay type: cell-based, rat; settings: angiotensin-II 1 μM, phenylephrine 50 μM, IL-33 10 ng/ml
Protocol: as §2
EMSAs were performed as described previously (47). Cells were lysed for 10 minutes on ice in 10 mM HEPES (pH 7.6), 15 mM KCl, 2 mM MgCl2, 0.1 mM EDTA, 1 mM DTT, 0.5 mM PMSF, 10 μg/mL leupeptin, and 0.2% Nonident P-40. Dishes were gently scraped, and nuclei were collected by centrifugation at 800 g for 30 seconds and then suspended in a solution of 50 mM HEPES, 400 mM KCl, 0.1 mM EDTA, 10% glycerol, 1 mM DTT, 0.5 mM PMSF, and 10 μg/mL leupeptin. The mixture was incubated on ice for 30 minutes, and the supernatant was collected after centrifugation for 15 minutes at 400 g. […]

cardiomyocytes = experiment: Oxidative stress assay (DCFDA, ROS generation); assay type: cell-based, rat; settings: DCFDA
Protocol: An assay to detect oxidative stress was performed as reported previously (48). Cardiomyocytes were incubated with 2,7-dichlorodihydrofluorecein diacetate (DCFDA) for 45 min, washed in phosphate-buffered saline, and fluorescence intensity was measured using a fluorometer (PerkinElmer Life Science) at 595 nm.

[6] = test system: rat neonatal cardiac fibroblasts; experiment: sST2 and IL-33 secretion and free IL-33 in cardiac fibroblast conditioned media (Western, immunoprecipitation); assay type: cell-based
Protocol: Immunoprecipitation was performed as described previously (45) with some modifications. Briefly, after wash with PBS, protein G-agarose beads were presaturated with far excessive amount of sST2-Fc protein (R&D) at 4° C. overnight, washed 3 times with PBS. 1 ml of conditioned media in the presence and absence of separated preincubation with 20 μg of the sST2-Fc protein was then incubated with presaturated beads for 2 hours at room temperature.
as §1

[7] = test system: rat neonatal cardiomyocytes; experiment: [3H]-leucine incorporation assay (hypertrophy); assay type: cell-based; settings: for hypertrophic response under angiotensin-II or phenylephrine: agent added without IL-33; for antihypertrophic effect of IL-33: under angiotensin-II or phenylephrine plus IL-33, agent added
Protocol: Leucine incorporation in rat neonatal cardiomyocytes was detected as previously described (7). Cells were pre-incubated with 1.0 μCi/mL [^3H]leucine for 24 hours. The medium was aspirated, and the cells were washed twice with ice-cold PBS and once with 10% trichloroacetic acid (TCA; Sigma) and fixed for 45 minutes at 4° C. with 10% TCA. After washing twice with cold 95% ethanol, radioactivity incorporated into the TCA-precipitable material was determined by liquid scintillation counting after solubilization in 0.15N NaOH.
Leucine incorporation in rat neonatal cardiomyocytes was detected as previously described (46). Cells were treated with 1.0 μCi/ml [^3H]-leucine for 24 hours, washed, fixed with 10% trichloroacetate (Sigma) for 45 minutes at 4° C., and then radioactivity was determined by liquid scintillation counting. An anti-mouse ST2 antibody (R&D) was used as a functional neutralizing antibody (12). A normal rat IgG2a (Sigma) and mouse IL-1Rrp2 (R&D) were used as controls for anti-mouse ST2 antibody (R&D) and mouse soluble ST2 (R&D), respectively.

[8] = increasing doses of PMA, 24 hrs

angiotensin-II (DRVYIHPF; Angiotensin-2; UniProt P01019 25-32, looked up) [hypertrophic stimulus, angiotensin receptor agonist, reference compound]
IκBα phosphorylation by agent alone (IκBα [1]): induced IκBα phosphorylation in both cell types
induction of IL-33 gene expression (IL-33): induced the expression of IL-33 in both cell types
increase of NF-κB promoter activity (NF-κB [2]; angiotensin-II alone): 66+/−26%
NF-κB activation by agent alone (NF-κB [3]): independently activated NF-κB in both cell types
IκBα phosphorylation by agent alone (IκBα [4]): induced IκBα phosphorylation in both cell types
NF-κB activation by agent alone (NF-κB [5]): independently activated NF-κB in both cell types
ROS generation by agonist alone (cardiomyocytes): significantly induced ROS generation

CNC[C@H](O)c1cccc(O)c1 [phenylephrine, reference compound]
NF-κB activation by agent alone (NF-κB [3]): independently activated NF-κB in both cell types
NF-κB activation by agent alone (NF-κB [5]): independently activated NF-κB in both cell types
ROS generation by agonist alone (cardiomyocytes): significantly induced ROS generation

sST2-Fc: sST2-Fc protein (R&D), recombinant ST2-Fc chimera protein
free IL-33 in conditioned media after preincubation ([6]; 20 μg of sST2-Fc protein): removed free IL-33

IL-1β: cytokine stimulus, 10 ng/ml
induction of IL-33 gene expression (IL-33): neither TNF-α (10 ng/ml) nor IL-1β (10 ng/ml) induced IL-33 gene expression

sST2: soluble form of ST2; mouse soluble ST2 (R&D); acts as decoy receptor for IL-33
increase of NF-κB promoter activity (NF-κB [2]; angiotensin-II with IL-33 and sST2 co-treatment): 42+/−5%
hypertrophic response under angiotensin-II or phenylephrine [7]: further augment the hypertrophic response; also recorded: trend toward increased amino acid uptake
hypertrophic response under angiotensin-II or phenylephrine ([7]; listed as soluble ST2): further enhanced hypertrophy
leucine uptake at baseline ([7]; agent alone, vs baseline or control protein): not affected
antihypertrophic effect of IL-33 [7]: reversed the antihypertrophic effect of IL-33 in a dose-dependent manner
antihypertrophic effect of IL-33 ([7]; listed as Soluble ST2): dose-dependently reversed the antihypertrophic effect of IL-33
antihypertrophic effect of IL-33 ([7]; listed as soluble ST2): abolishes it; also recorded: the effects of IL-33 are abolished

TNF-α
induction of IL-33 gene expression (IL-33): neither TNF-α (10 ng/ml) nor IL-1β (10 ng/ml) induced IL-33 gene expression

CCCCCCCCCCCCCC(=O)O[C@@H]1[C@@H](C)[C@@]2(O)[C@@H](C=C(CO)C[C@]3(O)C(=O)C(C)=C[C@@H]23)[C@@H]2C(C)(C)[C@]12OC(C)=O [PMA, phorbol 12-myristate 13-acetate]
free (unbound) IL-33 [6, 8]: unbound IL-33 diminished; also recorded: dose-dependent decrease in free IL-33 level; also recorded: dose-dependently decreased free IL-33
secretion of sST2 and total IL-33 [6, 8]: both sST2 and total IL-33 were induced; also recorded: dose-dependent robust induction in both sST2 and IL-33 protein expression; also recorded: dose-dependently increased secretion of both IL-33 (top) and sST2
induction of IL-33 gene expression (IL-33): induced the expression of IL-33 in both cell types; also recorded: powerful inducer
